Tests used:
Test in all cases: relative viability (nuclei count vs DMSO), 5 days (fraction); higher = more cells survive
Motesanib + Alpelisib = compound: CC1(C)CNc2cc(NC(=O)c3cccnc3NCc3ccncc3)ccc21 [Motesanib] + Cc1nc(NC(=O)N2CCC[C@H]2C(N)=O)sc1-c1ccnc(C(C)(C)C(F)(F)F)c1 [Alpelisib] (partner 2 µM)
How it was run: (§1)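 Five library-drug doses in √10 steps were combined with a fixed anchor-drug dose, or a single drug was given alone, by pin tool to lung cancer cell lines in 1536-well plates the day after seeding. Nuclei were stained and counted after 5 days. Relative viability is the nuclei count in treated wells over that in vehicle wells, taken as the median of duplicate plates.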

[1] = compound: C[C@@]1(C(=O)Nc2ccc(F)nc2)CCCN1c1nc(Nc2cc(C3CC3)n[nH]2)c2cccn2n1 + CC(=O)c1c(C)c2cnc(Nc3ccc(N4CCNCC4)cn3)nc2n(C2CCCC2)c1=O [Palbociclib] (partner 0.5 µM)
How it was run: as §1

[2] = compound: C[C@@]1(C(=O)Nc2ccc(F)nc2)CCCN1c1nc(Nc2cc(C3CC3)n[nH]2)c2cccn2n1 + CC(C)C[C@H](NC(=O)[C@H](Cc1ccccc1)NC(=O)c1cnccn1)B(O)O [Bortezomib] (partner 0.002 µM)
How it was run: as §1

[3] = compound: C[C@@]1(C(=O)Nc2ccc(F)nc2)CCCN1c1nc(Nc2cc(C3CC3)n[nH]2)c2cccn2n1 + NC(=O)Nc1cc(-c2cccc(F)c2)sc1C(=O)N[C@H]1CCCNC1 [AZD7762] (partner 0.2 µM)
How it was run: as §1

| Cell Line | relative viability (Motesanib + Alpelisib; first compound 0.01 µM) | relative viability (Motesanib + Alpelisib; first compound 0.03162 µM) | relative viability (Motesanib + Alpelisib; first compound 0.1 µM) | relative viability (Motesanib + Alpelisib; first compound 0.3162 µM) | relative viability (Motesanib + Alpelisib; first compound 1 µM) | relative viability ([1]; first compound 0.04 µM) | relative viability ([1]; first compound 0.1265 µM) | relative viability ([1]; first compound 0.4 µM) | relative viability ([1]; first compound 1.265 µM) | relative viability ([2]; first compound 0.04 µM) | relative viability ([2]; first compound 0.1265 µM) | relative viability ([2]; first compound 0.4 µM) | relative viability ([2]; first compound 1.265 µM) | relative viability ([3]; first compound 0.04 µM) | relative viability ([3]; first compound 0.1265 µM) | relative viability ([3]; first compound 0.4 µM) | relative viability ([3]; first compound 1.265 µM) |
| --- | --- | --- | --- | --- | --- | --- | --- | --- | --- | --- | --- | --- | --- | --- | --- | --- | --- |
| ABC-1 | 1.02 | 0.995 | 1.24 | 0.974 | 1.18 | 0.647 | 0.42 | 0.437 | 0.477 | 0.329 | 0.318 | 0.264 | 0.183 | 0.833 | 0.595 | 0.643 | 0.593 |
| NCI-H2170 | 0.803 | 0.789 | 0.824 | 0.785 | 0.794 | 0.362 | 0.396 | 0.369 | 0.371 |  |  |  |  | 0.836 | 0.864 | 0.744 | 0.791 |
| NCI-H1299 | 1.03 | 1.09 | 1.15 | 1.11 | 1.12 |  |  |  |  | 1.05 | 0.975 | 1.03 | 1.03 |  |  |  |  |
| EBC-1 | 0.795 | 0.914 | 0.899 | 0.847 | 0.925 |  |  |  |  | 0.527 | 0.509 | 0.52 | 0.302 |  |  |  |  |
| NCI-H2347 | 1.02 | 1 | 1.14 | 1.09 | 1.18 | 0.405 | 0.415 | 0.386 | 0.436 | 1.05 | 0.654 | 0.916 | 0.765 | 0.68 | 0.765 | 0.731 | 0.672 |
| NCI-H1993 | 0.656 | 0.659 | 0.765 | 0.697 | 0.642 | 0.461 | 0.465 | 0.27 | 0.49 | 0.797 |  | 0.615 | 0.674 | 0.495 | 0.496 | 0.455 | 0.567 |
| NCI-H1648 |  |  |  |  |  | 0.257 | 0.246 | 0.269 | 0.259 |  |  |  |  | 0.671 | 0.608 | 0.586 | 0.676 |
| ChaGo-K-1 |  |  |  |  |  | 0.972 | 0.828 | 0.86 | 0.93 | 1.01 | 0.797 | 1.1 | 0.824 | 0.845 | 0.815 | 0.862 | 0.841 |
| COR-L23 | 0.719 | 0.783 | 0.802 | 0.736 | 0.781 | 0.242 | 0.308 | 0.197 | 0.173 | 1.06 | 1.01 | 0.936 | 0.583 |  |  |  |  |
| COR-L 105 | 0.872 | 1.16 | 0.992 | 0.79 | 1.26 | 0.416 | 0.422 | 0.435 | 0.438 | 0.709 | 0.631 | 0.415 | 0.373 |  |  |  |  |
| LK-2 | 1.06 | 0.962 | 1.44 | 1.05 | 1.19 | 0.381 | 0.287 |  | 0.41 |  |  |  |  | 0.179 | 0.203 |  | 0.179 |
| NCI-H596 | 0.489 | 0.417 | 0.496 | 0.542 | 0.498 |  |  |  |  | 0.908 | 0.892 | 0.929 | 1 | 1.1 | 1.07 | 0.94 | 1.19 |

From the supplement of paper PMC10307832
